Results reported in patent publication US20070123546A1, “2-amino-7,8-dihydro-6H-pyrido[4,3-d]pyrimidin-5-ones” (Chiron Corporation, priority 2005, published 2007).

Target: His-tagged N-terminal ATP binding domain (amino acid residues 9-236) of HSP90α (Homo sapiens, UniProt P07900)
Assay: HSP90 inhibitor binding potency: TRF competition binding assay
Conditions: Table 4; competition with biotinylated radicicol
Outline: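 His-tagged HSP90α N-domain (residues 9-236) incubated 2 h at room temperature with biotinylated radicicol and increasing compound in 50 mM HEPES, 6 mM MgCl2, 20 mM KCl, 0.1% BSA. Bound tracer captured on streptavidin plates, detected with europium anti-His antibody by time-resolved fluorescence; IC50 derived.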

Row | Structure (SMILES) | IC50 [µM]
1 | COc1cccc(-c2ccccc2[C@H]2Cc3nc(N)ncc3C(=O)N2)n1 [Compound 206, (R)-2-Amino-7-[2-(6-methoxy-pyridin-2-yl)-phenyl]-7,8-dihydro-6H-pyrido[4,3-d]pyrimidin-5-one] | < 10
2 | Cc1nc(N)nc2c1C(=O)N[C@@H](c1ccc(F)cc1-c1nccc(N3CCCC3)n1)C2 [Compound 207, (R)-2-Amino-7-[4-fluoro-2-(4-pyrrolidin-1-yl-pyrimidin-2-yl)-phenyl]-4-methyl-7,8-dihydro-6H-pyrido[4,3-d]pyrimidin-5-one] | ≥ 10
3 | CCOc1nc(-c2cc(F)ccc2[C@H]2Cc3nc(N)ncc3C(=O)N2)cnc1N [Compound 214, (R)-2-Amino-7-[2-(5-amino-6-ethoxy-pyrazin-2-yl)-4-fluoro-phenyl]-7,8-dihydro-6H-pyrido[4,3-d]pyrimidin-5-one] | < 10
4 | CCOc1cncc(-c2cc(F)ccc2[C@H]2Cc3nc(N)ncc3C(=O)N2)n1 [Compound 218, (R)-2-Amino-7-[2-(6-ethoxy-pyrazin-2-yl)-4-fluoro-phenyl]-7,8-dihydro-6H-pyrido[4,3-d]pyrimidin-5-one] | < 10
5 | Cc1nc(N)nc2c1C(=O)N[C@@H](c1ccc(F)cc1C#N)C2 [Compound 219, 2-((R)-2-Amino-4-methyl-5-oxo-5,6,7,8-tetrahydro-pyrido[4,3-d]pyrimidin-7-yl)-5-fluoro-benzonitrile] | ≥ 10
6 | CCOc1cncc(-c2ccccc2[C@H]2Cc3nc(N)nc(C)c3C(=O)N2)n1 [Compound 220, (R)-2-Amino-7-[2-(6-ethoxy-pyrazin-2-yl)-phenyl]-4-methyl-7,8-dihydro-6H-pyrido[4,3-d]pyrimidin-5-one] | < 10
7 | COc1nc(-c2ccccc2[C@H]2Cc3nc(N)nc(C)c3C(=O)N2)ncc1C [Compound 221, (R)-2-Amino-7-[2-(4-methoxy-5-methyl-pyrimidin-2-yl)-phenyl]-4-methyl-7,8-dihydro-6H-pyrido[4,3-d]pyrimidin-5-one] | < 10
8 | COc1cncc(-c2scnc2[C@@H]2Cc3nc(N)ncc3C(=O)N2)n1 [Compound 224, (S)-2-Amino-7-[5-(6-methoxy-pyrazin-2-yl)-thiazol-4-yl]-7,8-dihydro-6H-pyrido[4,3-d]pyrimidin-5-one] | < 10
9 | COc1ccc([C@H]2Cc3nc(N)nc(C)c3C(=O)N2)c(-c2cncc(OC)n2)c1 [Compound 227, (R)-2-Amino-7-[4-methoxy-2-(6-methoxy-pyrazin-2-yl)-phenyl]-4-methyl-7,8-dihydro-6H-pyrido[4,3-d]pyrimidin-5-one] | < 10
10 | COc1nc(-c2ccccc2[C@H]2Cc3nc(N)ncc3C(=O)N2)cnc1N [Compound 229, (R)-2-Amino-7-[2-(5-amino-6-methoxy-pyrazin-2-yl)-phenyl]-7,8-dihydro-6H-pyrido[4,3-d]pyrimidin-5-one] | < 10
11 | COc1cccc(-c2scnc2[C@@H]2Cc3nc(N)nc(C)c3C(=O)N2)n1 [Compound 232, (S)-2-Amino-7-[5-(6-methoxy-pyridin-2-yl)-thiazol-4-yl]-4-methyl-7,8-dihydro-6H-pyrido[4,3-d]pyrimidin-5-one] | < 10
12 | COc1cncc(-c2scnc2[C@@H]2Cc3nc(N)nc(C)c3C(=O)N2)n1 [Compound 233, (S)-2-Amino-7-[5-(6-methoxy-pyrazin-2-yl)-thiazol-4-yl]-4-methyl-7,8-dihydro-6H-pyrido[4,3-d]pyrimidin-5-one] | < 10
13 | CCOc1nc(-c2ccccc2[C@H]2Cc3nc(N)ncc3C(=O)N2)cnc1N [Compound 234, (R)-2-Amino-7-[2-(5-amino-6-ethoxy-pyrazin-2-yl)-phenyl]-7,8-dihydro-6H-pyrido[4,3-d]pyrimidin-5-one] | < 10
14 | CCc1nc(-c2ccccc2[C@H]2Cc3nc(N)nc(C)c3C(=O)N2)cnc1N [Compound 235, (R)-2-Ammo-7-[2-(5-amino-6-ethyl-pyrazin-2-yl)-phenyl]-4-methyl-7,8-dihydro-6H-pyrido[4,3-d]pyrimidin-5-one] | < 10
15 | COc1ccc([C@H]2Cc3nc(N)nc(C)c3C(=O)N2)c(Br)c1 [Compound 236, (R)-2-Amino-7-(2-bromo-4-methoxy-phenyl)-4-methyl-7,8-dihydro-6H-pyrido[4,3-d]pyrimidin-5-one] | ≥ 10
16 | COc1ccc([C@H]2Cc3nc(N)nc(C)c3C(=O)N2)c(-c2cccc(OC)n2)c1 [Compound 237, (R)-2-Amino-7-[4-methoxy-2-(6-methoxy-pyridin-2-yl)-phenyl]-4-methyl-7,8-dihydro-6H-pyrido[4,3-d]pyrimidin-5-one] | < 10
17 | CCOc1nc(-c2cc(OC)ccc2[C@H]2Cc3nc(N)nc(C)c3C(=O)N2)cnc1N [Compound 238, (R)-2-Amino-7-[2-(5-amino-6-ethoxy-pyrazin-2-yl)-4-methoxy-phenyl]-4-methyl-7,8-dihydro-6H-pyrido[4,3-d]pyrimidin-5-one] | < 10
18 | CCOc1cncc(-c2cc(OC)ccc2[C@H]2Cc3nc(N)nc(C)c3C(=O)N2)n1 [Compound 239, (R)-2-Amino-7-[2-(6-ethoxy-pyrazin-2-yl)-4-methoxy-phenyl]-4-methyl-7,8-dihydro-6H-pyrido[4,3-d]pyrimidin-5-one] | < 10

More lines, now with the values ahead:

Row | IC50 [µM] | Structure (SMILES)
19 | < 10 | COc1nc(-c2cc(F)ccc2[C@H]2Cc3nc(N)ncc3C(=O)N2)ccc1N [Compound 208, (R)-2-Amino-7-[2-(5-amino-6-methoxy-pyridin-2-yl)-4-fluoro-phenyl]-7,8-dihydro-6H-pyrido[4,3-d]pyrimidin-5-one]
20 | < 10 | COc1ccc(-c2cc(F)ccc2[C@H]2Cc3nc(N)nc(C)c3C(=O)N2)s1 [Compound 209, (R)-2-Amino-7-[4-fluoro-2-(5-methoxy-thiophen-2-yl)-phenyl]-4-methyl-7,8-dihydro-6H-pyrido[4,3-d]pyrimidin-5-one]
21 | ≥ 10 | CCc1nc(N)nc2c1C(=O)N[C@@H](c1ccc(F)cc1Br)C2 [Compound 210, (R)-2-Amino-7-(2-bromo-4-fluoro-phenyl)-4-ethyl-7,8-dihydro-6H-pyrido[4,3-d]pyrimidin-5-one]
22 | < 10 | CCc1nc(N)nc2c1C(=O)N[C@@H](c1ccc(F)cc1-c1cccc(OC)n1)C2 [Compound 211, (R)-2-Amino-4-ethyl-7-[4-fluoro-2-(6-methoxy-pyridin-2-yl)-phenyl]-7,8-dihydro-6H-pyrido[4,3-d]pyrimidin-5-one]
23 | < 10 | CCc1nc(N)nc2c1C(=O)N[C@@H](c1ccc(F)cc1-c1cncc(OC)n1)C2 [Compound 212, (R)-2-Amino-4-ethyl-7-[4-fluoro-2-(6-methoxy-pyrazin-2-yl)-phenyl]-7,8-dihydro-6H-pyrido[4,3-d]pyrimidin-5-one]
24 | < 10 | COc1cccc(-c2cc(F)ccc2[C@H]2Cc3nc(N)nc(C)c3C(=O)N2)c1OC [Compound 213, (R)-2-Amino-7-(5-fluoro-2′,3′-dimethoxy-biphenyl-2-yl)-4-methyl-7,8-dihydro-6H-pyrido[4,3-d]pyrimidin-5-one]
25 | < 10 | CCc1nc(N)nc2c1C(=O)N[C@@H](c1ccc(F)cc1-c1csc(OC)n1)C2 [Compound 215, (R)-2-Amino-4-ethyl-7-[4-fluoro-2-(2-methoxy-thiazol-4-yl)-phenyl]-7,8-dihydro-6H-pyrido[4,3-d]pyrimidin-5-one]
26 | < 10 | CCOc1cncc(-c2cc(F)ccc2[C@H]2Cc3nc(N)nc(C)c3C(=O)N2)n1 [Compound 216, (R)-2-Amino-7-[2-(6-ethoxy-pyrazin-2-yl)-4-fluoro-phenyl]-4-methyl-7,8-dihydro-6H-pyrido[4,3-d]pyrimidin-5-one]
27 | < 10 | CCOc1cncc(-c2cc(F)ccc2[C@H]2Cc3nc(N)nc(CC)c3C(=O)N2)n1 [Compound 217, (R)-2-Amino-7-[2-(6-ethoxy-pyrazin-2-yl)-4-fluoro-phenyl]-4-ethyl-7,8-dihydro-6H-pyrido[4,3-d]pyrimidin-5-one]
28 | ≥ 10 | Cc1nc(N)nc2c1C(=O)N[C@@H](c1ccc(F)cc1-c1n[nH]c(=O)o1)C2 [Compound 222, (R)-2-Amino-7-[4-fluoro-2-(5-oxo-4,5-dihydro-[1,3,4]oxadiazol-2-yl)-phenyl]-4-methyl-7,8-dihydro-6H-pyrido[4,3-d]pyrimi[…]din-5-one]
29 | < 10 | COc1nnc(-c2cc(F)ccc2[C@H]2Cc3nc(N)nc(C)c3C(=O)N2)o1 [Compound 223, (R)-2-Amino-7-[4-fluoro-2-(5-methoxy-[1,3,4]oxadiazol-2-yl)-phenyl]-4-methyl-7,8-dihydro-6H-pyrido[4,3-d]pyrimidin-5-one]
30 | < 10 | COc1ncc(-c2cc(F)ccc2[C@H]2Cc3nc(N)nc(C)c3C(=O)N2)s1 [Compound 225, (R)-2-Amino-7-[4-fluoro-2-(2-methoxy-thiazol-5-yl)-phenyl]-4-methyl-7,8-dihydro-6H-pyrido[4,3-d]pyrimidin-5-one]
31 | < 10 | CCOc1nc(-c2cc(F)ccc2[C@H]2Cc3nc(N)nc(CC)c3C(=O)N2)cnc1N [Compound 226, (R)-2-Amino-7-[2-(5-amino-6-ethoxy-pyrazin-2-yl)-4-fluoro-phenyl]-4-ethyl-7,8-dihydro-6H-pyrido[4,3-d]pyrimidin-5-one]
32 | < 10 | CCOc1nc(-c2ccccc2[C@H]2Cc3nc(N)nc(C)c3C(=O)N2)cs1 [Compound 230, (R)-2-Amino-7-[2-(2-ethoxy-thiazol-4-yl)-phenyl]-4-methyl-7,8-dihydro-6H-pyrido[4,3-d]pyrimidin-5-one]
33 | < 10 | CCOc1nc(-c2cc(F)ccc2[C@H]2Cc3nc(N)nc(C)c3C(=O)N2)cs1 [Compound 231, (R)-2-Amino-7-[2-(2-ethoxy-thiazol-4-yl)-4-fluoro-phenyl]-4-methyl-7,8-dihydro-6H-pyrido[4,3-d]pyrimidin-5-one]
